Data as given in patent US20220289788A1, “3-HYDROXY-5-PREGNANE-20-ONE DERIVATIVE AND USE THEREOF” (priority 2019, published 2022).
Where a name gives a salt, the structure may show the parent alone.

Tests used:
physchem = conditions: 25 °C, thermodynamic from solid
[1] = Pharmacokinetic testing after single oral administration, allopregnanolone detected in plasma; type: in vivo; conditions: male SD rats, i.g. 20 mg/kg (as allopregnanolone)
Description: The object of this experiment is to study the single oral administration of each compound solution of the present invention, and an allopregnanolone solution, to detect allopregnanolone, an active ingredient in plasma, and to evaluate its pharmacokinetic (PK) properties in SD rats. The solution was to dissolve each compound in an aqueous solution containing 5% Tween 20.
The male SD rats used in this embodiment, weighing 180-220 g, were purchased from Shanghai SLAC Laboratory Animal Co., Ltd. All animals were fasted overnight, until 4 hours after administration.
The experimental SD rats were grouped by randomized block design, and 5 rats in each group, namely allopregnanolone group, compound 1 hydrochloride group, compound 2 hydrochloride group, compound 14 hydrochloride group, and compound 15 hydrochloride group. Each group was administered by irrigation (i.g.) at a dose of 20 mg/kg (as measured by allopregnanolone).
0.0833 h, 0.25 h, 0.5 h, 1 h, 2 h, 3 h, 4 h, 6 h, 9 h, 12 h, 24 h after the administration, about 0.6 mL of blood sample was collected from peripheral veins and transferred to a commercial centrifuge tube containing 0.85 to 1.15 mg of K2 EDTA anticoagulant (Jiangsu Kangjian Medical Products Co., Ltd.). Within 30 minutes after blood collection, plasma was centrifuged (centrifugation at 3,000 g for 10 minutes at approximately 4° C.). The plasma was placed in a labeled polypropylene tube, quick-frozen in dry ice, then stored in an ultra-low temperature freezer at −60° C. or lower for testing. LC-MS/MS bioassay was used to detect the concentration of drug in SD rat plasma. Blood concentration-time data was analyzed using a non-compartment model and a WinNonlin software package (version6.3 or later), as shown in Table-3.

[2] = Stability of compound in 5% glucose solution (HPLC purity over time); type: physicochemical; conditions: about 1 mg/g, room temperature
Protocol: An appropriate amount of the derivative of the present invention was weighed respectively, dissolved in a 5% glucose solution and prepared into a solution with a concentration of about 1 mg/g.
(1) Blank solution: Methanol.
(2) Sample solution: A suitable solution was taken and filtered through a 0.22 μm filter membrane.

[3] = cited from earlier work
[4] = pH 4.5 buffer solution, pH 4.5, aqueous buffer

## CC(=O)[C@H]1CC[C@H]2[C@@H]3CC[C@H]4C[C@H](OC(=O)CNC(=O)[C@H](C)N)CC[C@]4(C)[C@H]3CC[C@]12C [Compound 23 hydrochloride]
physchem; [4]
  solubility at 24 h: 970 µg/mL
physchem; water
  solubility at 24 h: 640 µg/mL

## CC(=O)[C@H]1CC[C@H]2[C@@H]3CC[C@H]4C[C@H](OC(=O)[C@H](C)OC(=O)[C@@H](N)C(C)C)CC[C@]4(C)[C@H]3CC[C@]12C [Compound 13 hydrochloride]
physchem; [4]
  solubility at 24 h: 10 µg/mL
physchem; water
  solubility at 24 h: 370 µg/mL

## CC(=O)[C@H]1CCC2[C@@H]3CCC4CC(OC(=O)C(NC(=O)CN)C(C)C)CC[C@]4(C)C3CC[C@@]21C (stereo partly drawn) [Compound 2 hydrochloride]
[1]
  AUC0-last: 196.0 ng′ hours/mL
physchem; [4]
  solubility at 24 h: > 10000 µg/mL
physchem; water
  solubility at 24 h: > 10000 µg/mL
[2]; 0 hour
  Purity: 95.00%
[2]; 1 hour
  Purity: 94.59%
[2]; 3 hours
  Purity: 94.50%
[2]; 5 hours
  Purity: 94.05%
[2]; 8 hours
  Purity: 94.33%

## CC(=O)[C@H]1CCC2[C@@H]3CCC4CC(OC(=O)C(NC(=O)C5CCCN5)C(C)C)CC[C@]4(C)C3CC[C@@]21C (stereo partly drawn) [Compound 4 hydrochloride]
physchem; water
  solubility at 24 h: 190 µg/mL

## CC(=O)[C@H]1CC[C@H]2[C@@H]3CC[C@H]4C[C@H](O)CC[C@]4(C)[C@H]3CC[C@]12C [Allopregnanolone, allopregnanolone, reference compound]
[1]
  AUC0-last: 24.9 ng′ hours/mL
[3]
  human plasma half-life period: about 45 minutes

## CC(=O)[C@H]1CC[C@H]2[C@@H]3CC[C@H]4C[C@H](OC(=O)[C@@H](NC(=O)C(C)N)C(C)C)CC[C@]4(C)[C@H]3CC[C@]12C (stereo partly drawn) [Compound 6 hydrochloride]
physchem; water
  solubility at 24 h: 5680 µg/mL

## CC(=O)[C@H]1CC[C@H]2[C@@H]3CC[C@H]4C[C@H](OC(=O)CNC(=O)[C@@H](N)C(C)C)CC[C@]4(C)[C@H]3CC[C@]12C [Compound 14 hydrochloride]
[1]
  AUC0-last: 150.2 ng′ hours/mL
physchem; [4]
  solubility at 24 h: > 50000 µg/mL
physchem; water
  solubility at 24 h: > 10000 µg/mL

## CC(=O)[C@H]1CC[C@H]2[C@@H]3CC[C@H]4C[C@H](OC(=O)[C@H](C)NC(=O)CN)CC[C@]4(C)[C@H]3CC[C@]12C [Compound 12 hydrochloride]
physchem; [4]
  solubility at 24 h: 1910 µg/mL
physchem; water
  solubility at 24 h: 2620 µg/mL

## CC(=O)[C@H]1CCC2[C@@H]3CCC4CC(OC(=O)C(NC(=O)C(N)Cc5c[nH]c6ccccc56)C(C)C)CC[C@]4(C)C3CC[C@@]21C (stereo partly drawn) [Compound 5 hydrochloride]
physchem; water
  solubility at 24 h: 70 µg/mL

## CC(=O)[C@H]1CC[C@H]2[C@@H]3CC[C@H]4CC(OC(=O)C(NC(=O)C(N)CC(C)C)C(C)C)CC[C@]4(C)[C@H]3CC[C@]12C (stereo partly drawn) [Compound 7 hydrochloride]
physchem; water
  solubility at 24 h: 7380 µg/mL

## CC(=O)[C@H]1CC[C@H]2[C@@H]3CC[C@H]4C[C@H](OC(=O)[C@H](C)NC(=O)[C@@H](N)C(C)C)CC[C@]4(C)[C@H]3CC[C@]12C [Compound 10 hydrochloride]
[2]; 0 hour
  Purity: 99.12%
[2]; 1 hour
  Purity: 99.09%
[2]; 3 hours
  Purity: 99.04%
[2]; 5 hours
  Purity: 98.05%
[2]; 8 hours
  Purity: 97.89%

## CC(=O)[C@H]1CC[C@H]2[C@@H]3CC[C@H]4C[C@H](OC(=O)CNC(=O)CN)CC[C@]4(C)[C@H]3CC[C@]12C [Compound 15 hydrochloride]
[1]
  AUC0-last: 166.3 ng′ hours/mL
physchem; water
  solubility at 24 h: 1110 µg/mL
